Experimental data: patent publication US20250101039A1, “RIFAMYCIN DERIVATIVES FOR THE TREATMENT OF DISEASES” (priority 2022, published 2025)
In brackets after ≈: the same amount, converted by molar mass. Read-outs that look alike come from different tables or passages of the source.

Tests used:
S. aureus = experiment: MIC by broth microdilution, S. aureus; format: cell-based, Staphylococcus aureus; conditions: Staphylococcus aureus, read-out: MIC S. aureus; cation adjusted Mueller Hinton broth, 35° C. 20 hours
A. baumannii = experiment: MIC by broth microdilution, A. baumannii (WT); format: cell-based, Acinetobacter baumannii; conditions: Acinetobacter baumannii
[1] = tested on: Enterococcus faecium (strain NCTC 12204); experiment: MIC by broth microdilution, E. faecium; format: cell-based; conditions: Enterococcus faecium, NCTC12204; strain NCTC 12204, cation adjusted Mueller Hinton broth; read-out: MIC E. faecium
[2] = tested on: Enterococcus faecalis (strain ATCC 51575); experiment: MIC by broth microdilution, E. faecalis; format: cell-based; conditions: Enterococcus faecalis, ATCC51575; strain ATCC 51575, cation adjusted Mueller Hinton broth; read-out: MIC E. faecalis
[3] = tested on: Staphylococcus epidermidis (strain ATCC 12228); experiment: MIC by broth microdilution, S. epidermidis; format: cell-based; conditions: Staphylococcus epidermidis, ATCC12228; strain ATCC 12228, cation adjusted Mueller Hinton broth; read-out: MIC S. epidermidis
[4] = tested on: H. influenzae (strain ATCC 49247); experiment: MIC by broth microdilution, H. influenzae; format: cell-based, Hemophilus influenzae; conditions: Haemophilus influenzae, ATCC49247; strain ATCC 49247, Hemophilus test medium broth; read-out: MIC H. influenzae
A. baumannii RpoB H535Q = experiment: microbe, parasite or virus in culture; format: cell-based, Acinetobacter baumannii; conditions: Acinetobacter baumannii, RPOBH535Q
A. baumannii RpoB H535C = experiment: microbe, parasite or virus in culture; format: cell-based, Acinetobacter baumannii; conditions: Acinetobacter baumannii, RPOBH535C
A. baumannii RpoB H535L = experiment: microbe, parasite or virus in culture; format: cell-based, Acinetobacter baumannii; conditions: Acinetobacter baumannii, RPOBH535L
[5] = tested on: A. baumannii RpoB H535Q/S521T; experiment: microbe, parasite or virus in culture; format: cell-based, Acinetobacter baumannii; conditions: Acinetobacter baumannii, RPOBH535Q/S521T
A. baumannii RpoB L542F = experiment: microbe, parasite or virus in culture; format: cell-based, Acinetobacter baumannii; conditions: Acinetobacter baumannii, RPOBL542F
A. baumannii RpoB I581M = experiment: microbe, parasite or virus in culture; format: cell-based, Acinetobacter baumannii; conditions: Acinetobacter baumannii, RPOBI581M, read-out: MIC, RpoB mutation I581M
A. baumannii RpoB S583L = experiment: microbe, parasite or virus in culture; format: cell-based, Acinetobacter baumannii; conditions: Acinetobacter baumannii, RPOBS583L, read-out: MIC, RpoB mutation S583L
A. baumannii RpoB N527D = experiment: microbe, parasite or virus in culture; format: cell-based, Acinetobacter baumannii; conditions: Acinetobacter baumannii, RPOBN527D, read-out: MIC, RpoB mutation N527D

With CO[C@H]1/C=C/O[C@@]2(C)Oc3c(C)c(O)c4c(c3C2=O)C2=NC3(CCN(CC(C)C)CC3)NC2=C(NC(=O)/C(C)=C\C=C\[C@H](C)[C@H](O)[C@@H](C)[C@@H](O)[C@@H](C)[C@H](OC(C)=O)[C@@H]1C)C4=O [Rifabutin, reference compound] the MIC (S. aureus) was 0.016 µg/mL (≈ 0.0189 µM), the MIC (A. baumannii; 20 h, Table 4, RPMI + FCS, read-out: A. baumannii MIC, WT) was no more than 0.002 µg/mL and the MIC (A. baumannii; read-out: MIC A. baumannii, RPMI medium supplemented with 10% FCS, 35° C. 20 hours) was less than 0.002 µg/mL. It also gave an MIC [1] of 0.125 µg/mL (≈ 0.148 µM), an MIC [2] of 4 µg/mL (≈ 4.72 µM) and an MIC [3] of 0.004 µg/mL (≈ 0.00472 µM). It also gave an MIC [4] of 0.5 µg/mL (≈ 0.59 µM), an MIC (A. baumannii RpoB H535Q; 20 h, read-out: A. baumannii MIC, RpoB H535Q, Table 4, RPMI + FCS) of 0.004 µg/mL and an MIC (A. baumannii RpoB H535Q; 20 h, read-out: MIC, RpoB mutation H535Q, Table 5 part 1 c2, 1st H535Q isolate, RPMI + 10% FCS) of 0.03 µg/mL. It also gave an MIC (A. baumannii RpoB H535Q; 20 h, read-out: MIC, RpoB mutation H535Q, Table 5 part 1 c3, 2nd H535Q isolate, RPMI + 10% FCS) greater than 32 µg/mL, an MIC (A. baumannii RpoB H535Q; 20 h, read-out: MIC, RpoB mutation H535Q, Table 5 part 1 c4, 3rd H535Q isolate, RPMI + 10% FCS) of 16 µg/mL and an MIC (A. baumannii RpoB H535C; 20 h, read-out: A. baumannii MIC, RpoB H535C, Table 4, RPMI + FCS) of 0.03 µg/mL. The MIC (A. baumannii RpoB H535C; 20 h, read-out: MIC, RpoB mutation H535C, Table 5 part 2 c1, 1st H535C isolate, RPMI + 10% FCS) was 0.06 µg/mL, the MIC (A. baumannii RpoB H535C; 20 h, read-out: MIC, RpoB mutation H535C, Table 5 part 2 c2, 2nd H535C isolate, RPMI + 10% FCS) was 0.016 µg/mL and the MIC (A. baumannii RpoB H535C; 20 h, read-out: MIC, RpoB mutation H535C, Table 5 part 2 c3, 3rd H535C isolate, RPMI + 10% FCS) was 0.25 µg/mL. It also gave an MIC (A. baumannii RpoB H535C; 20 h, read-out: MIC, RpoB mutation H535C, Table 5 part 2 c4, 4th H535C isolate, RPMI + 10% FCS) greater than 32 µg/mL, an MIC (A. baumannii RpoB H535L; 20 h, read-out: A. baumannii MIC, RpoB H535L, Table 4, RPMI + FCS) greater than 32 µg/mL and an MIC (A. baumannii RpoB H535L; 20 h, read-out: MIC, RpoB mutation H535L, Table 5 part 2 c5, 1st H535L isolate, RPMI + 10% FCS) of 0.06 µg/mL. The MIC (A. baumannii RpoB H535L; 20 h, read-out: MIC, RpoB mutation H535L, Table 5 part 2 c6, 2nd H535L isolate, RPMI + 10% FCS) was 0.008 µg/mL, the MIC (A. baumannii RpoB H535L; 20 h, read-out: MIC, RpoB mutation H535L, Table 5 part 3 c1, 3rd H535L isolate, RPMI + 10% FCS) was greater than 32 µg/mL and the MIC (A. baumannii RpoB H535L; 20 h, read-out: MIC, RpoB mutation H535L, Table 5 part 3 c6, 4th H535L isolate, RPMI + 10% FCS) was greater than 32 µg/mL. For the same molecule, the MIC (A. baumannii RpoB H535L; 20 h, read-out: MIC, RpoB mutation H535L, Table 5 part 3 c7, 5th H535L isolate, RPMI + 10% FCS) was greater than 32 µg/mL, the MIC ([5]; read-out: MIC, RpoB mutation H535Q/S521T, Table 5 part 1 c5, 1st H535Q/S521T isolate, RPMI + 10% FCS) was 32 µg/mL and the MIC ([5]; read-out: MIC, RpoB mutation H535Q/S521T, Table 5 part 1 c6, 2nd H535Q/S521T isolate, RPMI + 10% FCS) was 16 µg/mL. For the same molecule, the MIC (A. baumannii RpoB L542F; 20 h, read-out: MIC, RpoB mutation L542F, Table 5 part 3 c2, 1st L542F isolate, RPMI + 10% FCS) was 0.004 µg/mL and the MIC (A. baumannii RpoB L542F; 20 h, read-out: MIC, RpoB mutation L542F, Table 5 part 3 c3, 2nd L542F isolate, RPMI + 10% FCS) was 1 µg/mL.
For CO[C@H]1/C=C/O[C@@]2(C)Oc3c(C)c(O)c4c(O)c(c(/C=N/N5CCN(C)CC5)c(O)c4c3C2=O)NC(=O)/C(C)=C\C=C\[C@H](C)[C@H](O)[C@@H](C)[C@@H](O)[C@@H](C)[C@H](OC(C)=O)[C@@H]1C [Rifampicin, reference compound], the MIC (A. baumannii; Table 4, cation-adjusted Mueller Hinton broth (rifampicin), read-out: A. baumannii MIC, WT) was 8 µg/mL (≈ 9.72 µM), the MIC [1] was 500 µg/mL (≈ 608 µM) and the MIC [2] was 1000 µg/mL (≈ 1220 µM). The MIC [3] was no more than 2 µg/mL, the MIC [4] was 250 µg/mL (≈ 304 µM) and the MIC (A. baumannii RpoB H535Q; read-out: A. baumannii MIC, RpoB H535Q, Table 4, cation-adjusted Mueller Hinton broth (rifampicin)) was greater than 32 µg/mL. For the same molecule, the MIC (A. baumannii RpoB H535Q; read-out: MIC, RpoB mutation H535Q, Table 5 part 1 c2, 1st H535Q isolate, cation-adjusted Mueller Hinton broth (rifampicin)) was greater than 32 µg/mL, the MIC (A. baumannii RpoB H535Q; read-out: MIC, RpoB mutation H535Q, Table 5 part 1 c3, 2nd H535Q isolate, cation-adjusted Mueller Hinton broth (rifampicin)) was greater than 32 µg/mL and the MIC (A. baumannii RpoB H535Q; read-out: MIC, RpoB mutation H535Q, Table 5 part 1 c4, 3rd H535Q isolate, cation-adjusted Mueller Hinton broth (rifampicin)) was greater than 32 µg/mL. It also gave an MIC (A. baumannii RpoB H535C; read-out: A. baumannii MIC, RpoB H535C, Table 4, cation-adjusted Mueller Hinton broth (rifampicin)) greater than 32 µg/mL, an MIC (A. baumannii RpoB H535C; read-out: MIC, RpoB mutation H535C, Table 5 part 2 c2, 2nd H535C isolate, cation-adjusted Mueller Hinton broth (rifampicin)) greater than 32 µg/mL and an MIC (A. baumannii RpoB H535C; read-out: MIC, RpoB mutation H535C, Table 5 part 2 c3, 3rd H535C isolate, cation-adjusted Mueller Hinton broth (rifampicin)) greater than 32 µg/mL. For the same molecule, the MIC (A. baumannii RpoB H535C; read-out: MIC, RpoB mutation H535C, Table 5 part 2 c4, 4th H535C isolate, cation-adjusted Mueller Hinton broth (rifampicin)) was greater than 32 µg/mL, the MIC (A. baumannii RpoB H535L; read-out: A. baumannii MIC, RpoB H535L, Table 4, cation-adjusted Mueller Hinton broth (rifampicin)) was greater than 32 µg/mL and the MIC (A. baumannii RpoB H535L; read-out: MIC, RpoB mutation H535L, Table 5 part 2 c5, 1st H535L isolate, cation-adjusted Mueller Hinton broth (rifampicin)) was greater than 32 µg/mL. The MIC (A. baumannii RpoB H535L; read-out: MIC, RpoB mutation H535L, Table 5 part 2 c6, 2nd H535L isolate, cation-adjusted Mueller Hinton broth (rifampicin)) was greater than 32 µg/mL, the MIC (A. baumannii RpoB H535L; read-out: MIC, RpoB mutation H535L, Table 5 part 3 c1, 3rd H535L isolate, cation-adjusted Mueller Hinton broth (rifampicin)) was greater than 32 µg/mL and the MIC (A. baumannii RpoB H535L; read-out: MIC, RpoB mutation H535L, Table 5 part 3 c6, 4th H535L isolate, cation-adjusted Mueller Hinton broth (rifampicin)) was greater than 32 µg/mL. The MIC (A. baumannii RpoB H535L; read-out: MIC, RpoB mutation H535L, Table 5 part 3 c7, 5th H535L isolate, cation-adjusted Mueller Hinton broth (rifampicin)) was greater than 32 µg/mL, the MIC (A. baumannii RpoB I581M) was greater than 32 µg/mL and the MIC (A. baumannii RpoB L542F; read-out: MIC, RpoB mutation L542F, Table 5 part 3 c2, 1st L542F isolate, cation-adjusted Mueller Hinton broth (rifampicin)) was 8 µg/mL (≈ 9.72 µM). For the same molecule, the MIC (A. baumannii RpoB L542F; read-out: MIC, RpoB mutation L542F, Table 5 part 3 c3, 2nd L542F isolate, cation-adjusted Mueller Hinton broth (rifampicin)) was 8 µg/mL (≈ 9.72 µM), the MIC (A. baumannii RpoB S583L) was greater than 32 µg/mL and the MIC (A. baumannii RpoB N527D) was greater than 32 µg/mL.
